Laboratory results taken from patent US20110240014A1, “SUBSTRATES FOR DRUG DELIVERY DEVICE AND METHODS OF PREPARING AND USE” (ALEXZA PHARMACEUTICALS, INC., priority 2003, published 2011).
“Also recorded” adds a separate entry of the source.

How the values were obtained:
[1] = Vaporization of flunisolide film from stainless steel foil substrates (304, T-430, zirconium oxide coated 304); aerosol purity, yield and recovery by HPLC; details: for Purity of the drug aerosol particles: peak about 350° C.
[2] = Vaporization of budesonide film from clean and treated steel foils 304, T-430 and zirconium oxide coated 304; aerosol purity, yield and recovery by HPLC; type: physicochemical; details: in all cases (all foils of Example 5)
Description: Generation of budesonide aerosol from clean and treated steel foils 304 and T-430. […] All foils were dip-coated with a budesonide solution in dichloromethane.

[3] = Vaporization of bumetanide film from heat-treated, nitric acid-treated and non-treated 304 stainless steel foil; aerosol purity, yield and recovery by HPLC; details: for mass recovered from the filter / percent yield (recovered from the filter) / total mass recovered from the filter, test apparatus and substrate / Purity of the drug aerosol particles: coating 1.4 μm, 0.77 mg applied; for Purity of the drug aerosol particles: peak about 320° C.
[4] = Vaporization of eletriptan film from heat-treated and non-treated 304 stainless steel foil; aerosol purity, yield and recovery by HPLC; type: physicochemical; details: for mass recovered from the filter / percent yield (recovered from the filter) / total mass recovered from the filter, test apparatus and substrate / Purity of the drug aerosol particles: film thickness 4.2 μm, 2.26 mg applied; for Purity of the drug aerosol particles: peak about 450° C.
[5] = 0.5 μm coating on the heat-treated substrate
[6] = 1.5 μm coating on the non-treated substrate
[7] = heat-treated substrate 304, film thickness 0.5 μm, 0.253 mg applied
[8] = heat-treated substrate 304, film thickness 1.5 μm, 0.443 mg applied
[9] = non-treated substrate 304, film thickness 0.9 μm, 0.485 mg applied
[10] = non-treated substrate T-430, film thickness 1.3 μm, 0.68 mg applied
[11] = substrate 304 (treatment not stated), film thickness 1.2 μm, 0.65 mg applied
[12] = zirconium oxide coated substrate 304, film thickness 0.8 μm, 0.44 mg applied
[13] = acid-treated (nitric acid) substrate

In the case of `CC1(C)O[C@@H]2C[C@H]3[C@@H]4C[C@H](F)C5=CC(=O)C=C[C@]5(C)[C@H]4[C@@H](O)C[C@]3(C)[C@]2(C(=O)CO)O1` [flunisolide], the aerosol particles yielded [1, 5] was “about 0.3 mg”, the “coated dose emitted from the test apparatus” value [1, 5] was 97%-100 and the aerosol particles yielded [1, 6] was 0.2 mg. The “coated dose emitted from the test apparatus” value [1, 6] was “about 25%”, the “vapor purity (in words)” value ([1]; clean, non-treated T-430 steel foil, compared with non-treated 304 (FIG. 7)) was “good vapor purities; also recorded: improved purities; also recorded: very good purities” and the “purity of thermal vapor” value ([1]; heat-treated 304 substrate, film thickness about 0.2 μm (FIG. 6)) was “about 93%”. For the same compound, the “change of aerosol purity (in words)” value ([1]; heat-treated T-430 foils versus non-treated T-430) was “no marked improvement”, the “mass recovered from the filter” value [1, 7] was 0.253 mg and the “percent yield (recovered from the filter)” value (from here on “percent yield”) [1, 7] was 100%. The “total mass recovered from the test apparatus and substrate” value [1, 7] was 0.253 mg, the “Purity of the drug aerosol particles” value [1, 7] was 94.4% and the “mass recovered from the filter” value [1, 8] was 0.255 mg. For the same compound, the “percent yield” value [1, 8] was 57.5%, the “total mass recovered from the test apparatus and substrate” value [1, 8] was 0.265 mg and the “Purity of the drug aerosol particles” value [1, 8] was 76.5%. The “purity of thermal vapor” value ([1]; heat-treated substrate, film thickness about 0.2 or 0.5 μm) was “about 93%”, the “purity of thermal vapor” value ([1]; heat-treated substrate, film thickness about 2.6 μm) was 83% and the “change of aerosol purity (in words)” value ([1]; heat-treated versus non-treated 304 substrates, films 0.2 μm to 2.6 μm (FIG. 6)) was “marked improvement; also recorded: marked increase”. The “quantity of drug remaining on the foil after vaporization” value (from here on “quantity of drug remaining on the foil”) ([1]; in all cases (all foils of Example 1)) was “less than 15 % of the loaded dose”, the “purity of thermal vapor” value ([1]; non-treated 304 substrate, film thickness about 0.2 μm (FIG. 6)) was “about 50%” and the “mass recovered from the filter” value [1, 9] was 0.206 mg. The “percent yield” value [1, 9] was 42.4%, the “total mass recovered from the test apparatus and substrate” value [1, 9] was 0.210 mg and the “Purity of the drug aerosol particles” value [1, 9] was 36.3%. For the same compound, the “mass recovered from the filter” value [1, 10] was 0.47 mg, the “percent yield” value [1, 10] was 69.1% and the “total mass recovered from the test apparatus and substrate” value [1, 10] was 0.51 mg. The “Purity of the drug aerosol particles” value [1, 10] was 82.8%, the “purity of thermal vapor” value ([1]; non-treated substrate, film thickness about 1.5 μm) was 38% and the “mass recovered from the filter” value [1, 11] was 0.161 mg. The “percent yield” value [1, 11] was 24.7%, the “total mass recovered from the test apparatus and substrate” value [1, 11] was 0.172 mg and the “Purity of the drug aerosol particles” value [1, 11] was 30.2%. The “vapor purity (in words)” value ([1]; zirconium oxide coated 304 steel foil, without heat treatment (FIG. 7)) was “good aerosol purities; also recorded: improved purities; also recorded: very good vapor purities”, the “mass recovered from the filter” value [1, 12] was 0.246 mg and the “percent yield” value [1, 12] was 55.9%. The “total mass recovered from the test apparatus and substrate” value [1, 12] was 0.31 mg and the “Purity of the drug aerosol particles” value [1, 12] was 90.0%.
In the case of `CCCC1O[C@@H]2C[C@H]3[C@@H]4CCC5=CC(=O)C=C[C@]5(C)[C@H]4[C@@H](O)C[C@]3(C)[C@]2(C(=O)CO)O1` (some centres unmarked) [budesonide], the “quantity of drug remaining on the foil” value [2] was “less than 5 % of the loaded dose”.
For `CCCCNc1cc(C(=O)O)cc(S(N)(=O)=O)c1Oc1ccccc1` [bumetanide], the “mass recovered from the filter” value [3, 13] was 0.41 mg, the “percent yield” value [3, 13] was 53% and the “total mass recovered from the filter, test apparatus and substrate” value (“total mass recovered from the filter” for short) [3, 13] was 0.42 mg. For the same compound, the “Purity of the drug aerosol particles” value [3, 13] was 98.3%, the “Purity of the drug aerosol particles” value ([3]; heat-treated substrate (350° C., 6 hours)) was 99.3% and the “mass recovered from the filter” value ([3]; heat-treated substrate) was 0.40 mg. For the same compound, the “percent yield” value ([3]; heat-treated substrate) was 52%, the “total mass recovered from the filter” value ([3]; heat-treated substrate) was 0.41 mg and the “quantity of drug remaining on the foil” value ([3]; in all cases (all foils of Example 4)) was “less than 5 % of the loaded dose”. For the same compound, the “mass recovered from the filter” value ([3]; non-treated substrate) was 0.37 mg, the “percent yield” value ([3]; non-treated substrate) was 48% and the “total mass recovered from the filter” value ([3]; non-treated substrate) was 0.37 mg. The “Purity of the drug aerosol particles” value ([3]; non-treated substrate) was 97.9%.
With `CN1CCC[C@@H]1Cc1c[nH]c2ccc(CCS(=O)(=O)c3ccccc3)cc12` [eletriptan] the “mass recovered from the filter” value ([4]; heat-treated 304 substrate) was 1.78 mg, the “percent yield” value ([4]; heat-treated 304 substrate) was 78.9% and the “total mass recovered from the filter” value ([4]; heat-treated 304 substrate) was 1.79 mg. The “Purity of the drug aerosol particles” value ([4]; heat-treated 304 substrate) was 95.6%, the “change of aerosol purity (in words)” value ([4]; heat-treated versus non-treated foils, films between 4.0 and 9.5 μm (FIG. 8)) was “increase” and the “quantity of drug remaining on the foil” value ([4]; in all cases (all foils of Example 2)) was “less than 15 % of the loaded dose”. For the same compound, the “mass recovered from the filter” value ([4]; non-treated 304 substrate) was 1.647 mg, the “percent yield” value ([4]; non-treated 304 substrate) was 72.9% and the “total mass recovered from the filter” value ([4]; non-treated 304 substrate) was 1.65 mg. The “Purity of the drug aerosol particles” value ([4]; non-treated 304 substrate) was 92.8%.
